Patent US9441012B2, “Fluorinated epoxyketone-based compounds and uses thereof as proteasome inhibitors” (FLUORINOV PHARMA INC., priority 2012, dated 2016)

Columns and labels:
Assay in all cases: NCI 60 human tumor cell line screen (SRB)
Format in all cases: cell-based
[1] = system: DU-145; details: DU-145 (Prostate Cancer); 48 h
Description: (§1) Representative compounds of Formula I were screened using the National Cancer Institute (NCI) screening panel, which consists of a panel of 60 different human tumor cell lines, representing leukemia [CCRF-CEM, HL-60 (TB), K-562, MOLT-4, SR], melanoma [LOX IMVI, MALME-3M, M14, SMDA-MB-435, SK-MEL-2, SK-MEL-28, SK-MEL-5, UACC-257 and UACC-62] and cancers of the lung [A549/ATCC, EKVX, HOP-62, HOP-93, NCI-H226, NCI-H23, NCI-H322M, NCI-H460], colon [COLO 205, HCT-116, HCT-15, HT29, KM12, SW-620], brain [SF-268, SF-295, SF-539, SNB-19, SNB-75, U251], ovary [IGROV1, OVCAR-3, OVCAR-4, OVCAR-5, OVCAR-8, NCI/ADR-RES, SK-OV-3], breast [MCF7, MDA-MB-231, BT-549, T-47D, MDA-MB-468], prostate [PC-3, DU-145], and renal[786-0, A498, ACHN, CAKI-1, RXF-393, SN12C, TK-10, UO-31] cancers.
(§2) After 24 h, two plates of each cell line are fixed in situ with TCA, to represent a measurement of the cell population for each cell line at the time of drug addition (Tz). Experimental drugs are solubilised in dimethyl sulfoxide at 400-fold the desired final maximum test concentration and stored frozen prior to use. At the time of drug addition, an aliquot of frozen concentrate is thawed and diluted to twice the desired final maximum test concentration with complete medium containing 50 μg/ml gentamicin. Additional four, 10-fold or ½ log serial dilutions are made to provide a total of five drug concentrations plus control. Aliquots of 100 μl of these different drug dilutions are added to the appropriate microtiter wells already containing 100 μl of medium, resulting in the required final drug concentrations.
(§3) Following drug addition, the plates are incubated for an additional 48 h at 37° C., 5% CO2, 95% air, and 100% relative humidity. For adherent cells, the assay is terminated by the addition of cold TCA (trichloroacetic acid). Cells are fixed in situ by the gentle addition of 50 μl of cold 50% (w/v) TCA (final concentration, 10% TCA) and incubated for 60 minutes at 4° C. The supernatant is discarded, and the plates are washed five times with tap water and air dried. Sulforhodamine B (SRB) solution (100 μl) at 0.4% (w/v) in 1% acetic acid is added to each well, and plates are incubated for 10 minutes at room temperature. After staining, unbound dye is removed by washing five times with 1% acetic acid and the plates are air dried. Bound stain is subsequently solubilised with 10 mM trizma base, and the absorbance is read on an automated plate reader at a wavelength of 515 nm. For suspension cells, the methodology is the same except that the assay is terminated by fixing settled cells at the bottom of the wells by gently adding 50 μl of 80% TCA (final concentration, 16% TCA). Using the seven absorbance measurements [time zero, (Tz), control growth, (C), and test growth in the presence of drug at the five concentration levels (Ti)], the percentage growth is calculated at each of the drug concentration levels. Percentage growth inhibition is calculated as: [(Ti−Tz)/(C−Tz)]×100 for concentrations in which Ti>/=Tz and [(Ti−Tz)/Tz]×100 for concentrations in which Ti<Tz.
(§4) Three dose response parameters are calculated for each experimental agent. Growth inhibition of 50% (GI50) is calculated from [(Ti−Tz)/(C−Tz)]100=50, which is the drug concentration resulting in a 50% reduction in the net protein increase (as measured by SRB staining) in control cells during the drug incubation. The drug concentration resulting in total growth inhibition (TGI) is calculated from Ti=Tz. The LC50 (concentration of drug resulting in a 50% reduction in the measured protein at the end of the drug treatment as compared to that at the beginning) indicating a net loss of cells following treatment is calculated from [(Ti−Tz)/Tz]×100=−50. Values are calculated for each of these three parameters if the level of activity is reached. However, if the effect is not reached or is exceeded, the value for that parameter is expressed as greater or less than the maximum or minimum concentration tested.

[2] = system: HOP-92; details: HOP-92 (Non-Small Cell Lung Cancer); 48 h
Description: as §1, §2, §3, §4

[3] = system: KM12; details: KM12 (Colon Cancer); 48 h
Description: as §1, §2, §3, §4

[4] = system: MDA-MB-435; details: MDA-MB-435 (Melanoma); 48 h
Description: as §1, §2, §3, §4

[5] = system: NCI-H322M; details: NCI-H322M (Non-Small Cell Lung Cancer); 48 h
Description: as §1, §2, §3, §4

[6] = system: PC-3; details: PC-3 (Prostate Cancer); 48 h
Description: as §1, §2, §3, §4

[7] = system: SF-539; details: SF-539 (CNS Cancer); 48 h
Description: as §1, §2, §3, §4

[8] = system: SNB-19; details: SNB-19 (CNS Cancer); 48 h
Description: as §1, §2, §3, §4

[9] = system: SW-620; details: SW-620 (Colon Cancer); 48 h
Description: as §1, §2, §3, §4

[10] = system: NCI-H522; details: NCI-H522 (Non-Small Cell Lung Cancer); 48 h
[11] = system: RXF 393; details: RXF 393 (Renal Cancer); 48 h
[12] = system: SN12C; details: SN12C (Renal Cancer); 48 h

Row | Compound | Log10GI50 [1] | Log10LC50 [1] | Log10TGI50 [1] | Log10GI50 [2] | Log10LC50 [2] | Log10TGI50 [2] | Log10GI50 [3] | Log10LC50 [3] | Log10TGI50 [3] | Log10GI50 [4] | Log10TGI50 [4] | Log10GI50 [5] | Log10LC50 [5] | Log10TGI50 [5] | Log10GI50 [6] | Log10LC50 [6] | Log10TGI50 [6] | Log10GI50 [7] | Log10LC50 [7] | Log10TGI50 [7] | further results
1 | C[C@]1(C(=O)[C@H](Cc2ccccc2)NC(=O)[C@H](COC(F)F)NC(=O)[C@H](COC(F)F)NC(=O)CN2CCOCC2)CO1 [Example 26, (S)-N-{(S)-1-[(S)-1-Benzyl-2-((R)-2-methyl-oxiranyl)-2-oxo-ethylcarbamoyl]-2-difluoromethoxyethyl}-3-difluoromethoxy-2-(2-morpholin-4-yl-acetylamino)-propio-namide] | −7.27 | >−4.00 | −5.32 | −7.65 | −6.35 | −7.16 | −7.72 | −7.06 | −7.39 | −7.75 | −7.42 | −7.10 | >−4.00 | −6.33 | −7.45 | −5.14 | −6.80 | −7.63 | −6.48 | −7.26 | Log10LC50 [4]: −7.10; Log10GI50 [8]: −7.23; Log10LC50 [8]: >−4.00; Log10TGI50 [8]: >−4.00; Log10GI50 [9]: −7.41; Log10LC50 [9]: >−4.00; Log10TGI50 [9]: −5.93; Log10GI50 [10]: −7.67; Log10LC50 [10]: >−4.00; Log10TGI50 [10]: −7.19; Log10GI50 [11]: −7.64; Log10LC50 [11]: −6.70; Log10TGI50 [11]: −7.25; Log10GI50 [12]: −7.39; Log10LC50 [12]: −5.15; Log10TGI50 [12]: −6.67
2 | CC(C)C[C@H](NC(=O)[C@H](Cc1ccccc1)NC(=O)[C@H](COC(F)F)NC(=O)CN1CCOCC1)C(=O)[C@@]1(C)CO1 [Example 25, (2S)-2-[[(2S)-3-(difluoromethoxy)-2-[(2-morpholinoacetyl)amino]propanoyl]amino]-N-[(1S)-3-methyl-1-[(2R)-2-methyloxirane-2-carbonyl]butyl]-3-phenyl-propanamide] | −7.27 | >−4.00 | −5.32 | −7.65 | −6.35 | −7.16 | −7.72 | −7.06 | −7.39 | −7.75 | −7.42 | −7.10 | >−4.00 | −6.33 | −7.45 | −5.14 | −6.80 | −7.63 | −6.48 | −7.26 | Log10LC50 [4]: −7.10; Log10GI50 [8]: −7.23; Log10LC50 [8]: >−4.00; Log10TGI50 [8]: >−4.00; Log10GI50 [9]: −7.41; Log10LC50 [9]: >−4.00; Log10TGI50 [9]: −5.93; Log10GI50 [10]: −7.67; Log10LC50 [10]: >−4.00; Log10TGI50 [10]: −7.19; Log10GI50 [11]: −7.64; Log10LC50 [11]: −6.70; Log10TGI50 [11]: −7.25; Log10GI50 [12]: −7.39; Log10LC50 [12]: −5.15; Log10TGI50 [12]: −6.67
3 | C[C@]1(C(=O)[C@H](Cc2ccccc2)NC(=O)[C@H](Cc2ccccc2)NC(=O)[C@H](COC(F)F)NC(=O)CN2CCOCC2)CO1 [Example 29] | −7.00 | −4.09 | −5.05 | −7.18 | −6.03 | −6.55 | −7.35 | −6.27 | −6.77 | −7.63 | −7.17 | −6.27 | −4.18 | −5.52 | −7.04 | >−4.00 | −6.40 | −7.39 | −4.49 | −6.76 | Log10GI50 [8]: −6.51; Log10LC50 [8]: >−4.00; Log10TGI50 [8]: >−4.00; Log10GI50 [9]: −7.40; Log10LC50 [9]: >−4.00; Log10TGI50 [9]: −4.92; Log10GI50 [10]: −6.90; Log10LC50 [10]: >−4.00; Log10TGI50 [10]: −6.17; Log10GI50 [11]: −7.20; Log10LC50 [11]: −6.31; Log10TGI50 [11]: −6.70; Log10GI50 [12]: −6.92; Log10LC50 [12]: −4.39; Log10TGI50 [12]: −6.38
4 | Cc1ncc(C(=O)N[C@@H](COC(F)F)C(=O)N[C@@H](COC(F)F)C(=O)N[C@@H](Cc2ccccc2)C(=O)[C@@]2(C)CO2)s1 [Example 1, 2-methyl-thiazole-5-carboxylic acid ((S)-1-{(S)-1-[(S)-1-benzyl-2-((R)-2-methyloxiranyl)-2-oxo-ethylcarbamoyl]-2-difluoromethoxyethylcarbamoyl}-2-difluoromethoxyethyl)-amide] | −6.58 | −5.02 | −5.64 | −6.23 | −4.39 | −5.40 | −6.88 | −6.10 | −6.49 | −7.43 | −6.74 | −5.54 | −4.23 | −4.74 | −6.48 | >−4.00 | −4.99 | −7.15 | −4.27 | −6.44 | Log10LC50 [4]: >−4.00; Log10GI50 [8]: −6.49; Log10LC50 [8]: >−4.00; Log10TGI50 [8]: >−4.00; Log10GI50 [9]: −7.39; Log10LC50 [9]: −4.40; Log10TGI50 [9]: −5.95; Log10GI50 [10]: −6.86; Log10LC50 [10]: −4.15; Log10TGI50 [10]: −6.15; Log10GI50 [11]: −6.79; Log10LC50 [11]: −6.02; Log10TGI50 [11]: −6.41; Log10GI50 [12]: −6.54; Log10LC50 [12]: −4.03; Log10TGI50 [12]: −5.29
